Data taken from patent US5002958A, “Hypotensive agent” (priority 1987, dated 1991).
Counter-ions that a name gives are not always drawn.

Columns and labels:
[1] = test system: dogs suffering from Goldblatt hypertension; assay: Effect of single oral administration on blood pressure of dogs suffering from Goldblatt hypertension; format: in vivo, Female beagles; details: 10 mg/kg oral; for reduction in the blood pressure / blood pressure after 3 h: once, after 3 h; for reduction in the blood pressure: result in words; for blood pressure after 3 h / blood pressure before administration: systolic pressure; for blood pressure after 3 h: control group 201±3 mmHg, unchanged after 5 h; for blood pressure before administration: artery of the tail
Description: Nicardipine hydrochloride was used as a control. The dose was 5 ml/kg.

[2] = Acute toxicity (LD50) in mice; details: mouse, in vivo, Mice (ICR)
[3] = Acute toxicity (LD50) in rats; details: rat, in vivo, Rats (SD)
[4] = Acute toxicity (LD50) in dogs; details: dog, in vivo, po, Dogs (Beagles)
[5] = Solubility (physico-chemical properties); format: physicochemical
[6] = test system: dogs suffering from Goldblatt hypertension; details: 10 mg/kg oral
Description: Nicardipine hydrochloride was used as a control. The dose was 5 ml/kg. Commercially available tablets were given as they were by oral administration. Female beagles suffering from Goldblatt hypertension of "one clip one kidney" type were used. […] The blood pressure and heart rate were measured in the artery of the tail of each dog in a closed manner with a device for continuously measuring the systolic pressure (SCS-301; a product of Shimadzu Seisakusho Ltd.). […] The effects of eperisone hydrochloride given once by oral administration on the blood pressure and heart beat were compared with those of nicardipine hydrochloride. The nine beagles were divided into three groups, i.e. a control group, a group to which 10 mg/kg of eperisone hydrochloride was given and another group to which 10 mg/kg of nicardipine hydrochloride was given. Nine beagles were subjected to the tests of all three groups. Namely, administration was discontinued at intervals of one week according to Latin square. The blood pressure and heart rate were measured before administration and then at specified intervals from one hour to five hours after administration. The analysis of variance was conducted by the time series analysis. The test groups were compared with the control group by Dunnet's method.

| SMILES | reduction in the blood pressure [1] | blood pressure after 3 h [1] [mmHg] | blood pressure before administration [1] [mmHg] | LD50 ([2]; iv, female) [mg/kg] | LD50 ([2]; iv, male) [mg/kg] | LD50 ([2]; po, female) [mg/kg] | LD50 ([2]; po, male) [mg/kg] | LD50 ([3]; iv, female) [mg/kg] | LD50 ([3]; iv, male) [mg/kg] | LD50 ([3]; po, female) [mg/kg] | LD50 ([3]; po, male) [mg/kg] | LD50 ([4]; female) [mg/kg] | LD50 ([4]; male) [mg/kg] | solubility in acetic anhydride ([5]; acetic anhydride) | solubility in acetone ([5]; acetone) | solubility in ethanol ([5]; ethanol) | solubility in ether ([5]; ether) | solubility in water, methanol, chloroform or glacial acetic acid ([5]; water, methanol, chloroform or glacial acetic acid) | solubility in water ([5]; water, agents used in the pharmacological experiment) | heart rate before administration [6] [beats/min] |
| --- | --- | --- | --- | --- | --- | --- | --- | --- | --- | --- | --- | --- | --- | --- | --- | --- | --- | --- | --- | --- |
| CCc1ccc(C(=O)C(C)CN2CCCCC2)cc1 (stereo not drawn) [eperisone hydrochloride, Eperisone hydrochloride] | a significant reduction in the blood pressure was observed | 172±3 | 202±4 | 43.5 | 43 | 940 | 1040 | 60 | 51 | 1300 | 1300 | > 750 | > 1080 | relatively difficultly soluble | difficultly soluble | relatively easily soluble | scarcely soluble | easily soluble | water-soluble | 97±5 |
| COC(=O)C1=C(C)NC(C)=C(C(=O)OCCN(C)Cc2ccccc2)C1c1cccc([N+](=O)[O-])c1 (stereo not drawn) [nicardipine hydrochloride, Nicardipine hydrochloride, reference compound] | a significant reduction in the blood pressure was also observed | 164±4 | 200±4 | – | – | – | – | – | – | – | – | – | – | – | – | – | – | – | – | 106±7 |
